Data published in ChEMBL document CHEMBL4421717, “Antagonists and agonists of bitter taste receptors and uses thereof” (2012).
Calls of active or inactive are those of the source. No cut-off for these calls is given here.

How the values were obtained:
Assay type in all cases: functional, cell-based
[1] = biological target: T1, Taste receptor type 2 member 46 (Homo sapiens, UniProt P59540); assay: Antagonist activity at recombinant human N-terminal rat ST3 receptor-fused TAS2R46 expressed in HEK293T cells co-expressing Galpha16gust44 assessed as inhibition of 30 uM andrographolide-induced intracellular calcium level 100 uM by FLIPR assay
T1 sequence (P59540 whole entry): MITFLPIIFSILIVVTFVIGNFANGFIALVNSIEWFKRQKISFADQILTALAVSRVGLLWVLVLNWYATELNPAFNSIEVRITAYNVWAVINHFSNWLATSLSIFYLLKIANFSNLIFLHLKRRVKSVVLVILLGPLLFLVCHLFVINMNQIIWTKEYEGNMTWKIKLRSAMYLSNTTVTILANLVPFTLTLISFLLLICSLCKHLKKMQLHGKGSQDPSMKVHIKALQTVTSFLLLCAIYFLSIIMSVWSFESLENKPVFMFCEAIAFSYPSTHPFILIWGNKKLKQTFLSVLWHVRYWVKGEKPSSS

[2] = biological target: Taste receptor type 2 member 19 (Homo sapiens) (UniProt P59542); assay: Agonist activity at recombinant human N-terminal rat ST3 receptor-fused TAS2R48 expressed in HEK293T cells co-expressing Galpha16gust44 assessed as effect on intracellular calcium level at 100 uM by FLIPR assay
[3] = biological target: T2, Taste receptor type 2 member 13 (Homo sapiens) (UniProt Q9NYV9); assay: Agonist activity at recombinant human N-terminal rat ST3 receptor-fused TAS2R13 expressed in HEK293T cells co-expressing Galpha16gust44 assessed as effect on intracellular calcium level at 100 uM by FLIPR assay
T2 sequence (whole entry): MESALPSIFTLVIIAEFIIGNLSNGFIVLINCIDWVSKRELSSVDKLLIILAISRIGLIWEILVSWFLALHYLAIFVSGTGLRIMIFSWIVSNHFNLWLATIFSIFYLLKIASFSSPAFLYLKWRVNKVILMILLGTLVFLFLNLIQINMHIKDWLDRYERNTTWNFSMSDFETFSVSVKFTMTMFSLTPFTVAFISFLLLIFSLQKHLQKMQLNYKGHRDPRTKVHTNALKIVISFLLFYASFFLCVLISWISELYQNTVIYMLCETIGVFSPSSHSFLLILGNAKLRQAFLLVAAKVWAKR

[4] = biological target: Taste receptor type 2 member 5 (Homo sapiens) (UniProt Q9NYW4); assay: Activity at recombinant human N-terminal rat ST3 receptor-fused TAS2R5 expressed in HEK293T cells co-expressing Galpha16gust44 assessed as increase in denatonium saccharide-induced intracellular calcium level at 100 uM by FLIPR assay
[5] = biological target: T3, Taste receptor type 2 member 38 (Homo sapiens) (UniProt P59533); assay: Agonist activity at recombinant human N-terminal rat ST3 receptor-fused TAS2R38 expressed in HEK293T cells co-expressing Galpha16gust44 assessed as effect on intracellular calcium level at 100 uM by FLIPR assay
T3 sequence (whole entry): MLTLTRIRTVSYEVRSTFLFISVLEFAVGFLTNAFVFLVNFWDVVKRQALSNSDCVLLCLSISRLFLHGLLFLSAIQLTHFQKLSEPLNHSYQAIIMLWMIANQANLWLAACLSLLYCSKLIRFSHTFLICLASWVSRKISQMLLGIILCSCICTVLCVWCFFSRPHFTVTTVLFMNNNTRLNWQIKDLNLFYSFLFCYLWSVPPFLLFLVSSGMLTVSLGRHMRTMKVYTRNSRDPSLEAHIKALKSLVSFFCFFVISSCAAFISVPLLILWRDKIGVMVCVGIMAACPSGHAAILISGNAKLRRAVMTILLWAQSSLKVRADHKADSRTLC

[6] = biological target: T4, Taste receptor type 2 member 43 (Homo sapiens) (UniProt P59537); assay: Agonist activity at recombinant human N-terminal rat ST3 receptor-fused TAS2R43 expressed in HEK293T cells co-expressing Galpha16gust44 assessed as effect on intracellular calcium level at 100 uM by FLIPR assay
T4 sequence (whole entry): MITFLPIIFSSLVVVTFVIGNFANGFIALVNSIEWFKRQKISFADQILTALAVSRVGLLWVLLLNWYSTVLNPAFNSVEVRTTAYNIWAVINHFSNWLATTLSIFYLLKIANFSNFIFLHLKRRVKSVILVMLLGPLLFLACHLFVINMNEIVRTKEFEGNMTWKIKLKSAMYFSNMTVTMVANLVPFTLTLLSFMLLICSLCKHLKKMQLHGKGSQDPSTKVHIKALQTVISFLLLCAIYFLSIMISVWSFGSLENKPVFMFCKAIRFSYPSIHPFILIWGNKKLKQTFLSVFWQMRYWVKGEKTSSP

[7] = biological target: T5, Taste receptor type 2 member 30 (Homo sapiens) (UniProt P59541); assay: Agonist activity at recombinant human N-terminal rat ST3 receptor-fused TAS2R47 expressed in HEK293T cells co-expressing Galpha16gust44 assessed as effect on intracellular calcium level at 100 uM by FLIPR assay
T5 sequence (whole entry): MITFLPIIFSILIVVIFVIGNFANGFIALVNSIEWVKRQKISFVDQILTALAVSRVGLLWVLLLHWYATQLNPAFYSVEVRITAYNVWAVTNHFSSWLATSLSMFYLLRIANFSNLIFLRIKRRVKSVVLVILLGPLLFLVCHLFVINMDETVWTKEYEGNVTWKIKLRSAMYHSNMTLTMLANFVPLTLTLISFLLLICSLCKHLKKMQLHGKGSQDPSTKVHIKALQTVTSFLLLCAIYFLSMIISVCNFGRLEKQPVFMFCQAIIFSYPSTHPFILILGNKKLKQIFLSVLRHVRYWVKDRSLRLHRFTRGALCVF

[8] = biological target: Taste receptor type 2 member 31 (Homo sapiens, UniProt P59538); assay: Agonist activity at recombinant human N-terminal rat ST3 receptor-fused TAS2R44 expressed in HEK293T cells co-expressing Galpha16gust44 assessed as effect on intracellular calcium level by FLIPR assay
Sequence of Taste receptor type 2 member 31 (P59538 whole entry, the tested form may be a part): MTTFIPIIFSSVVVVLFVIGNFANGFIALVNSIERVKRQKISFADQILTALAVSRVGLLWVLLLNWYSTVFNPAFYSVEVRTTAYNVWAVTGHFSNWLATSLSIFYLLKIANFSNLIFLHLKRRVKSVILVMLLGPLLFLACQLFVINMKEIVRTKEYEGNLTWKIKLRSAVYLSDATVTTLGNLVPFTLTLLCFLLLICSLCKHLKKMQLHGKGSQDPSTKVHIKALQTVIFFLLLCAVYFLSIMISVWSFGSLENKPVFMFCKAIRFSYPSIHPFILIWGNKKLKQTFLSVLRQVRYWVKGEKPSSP

Sequence of Taste receptor type 2 member 5 (Homo sapiens) (Q9NYW4 whole entry, the tested form may be a part): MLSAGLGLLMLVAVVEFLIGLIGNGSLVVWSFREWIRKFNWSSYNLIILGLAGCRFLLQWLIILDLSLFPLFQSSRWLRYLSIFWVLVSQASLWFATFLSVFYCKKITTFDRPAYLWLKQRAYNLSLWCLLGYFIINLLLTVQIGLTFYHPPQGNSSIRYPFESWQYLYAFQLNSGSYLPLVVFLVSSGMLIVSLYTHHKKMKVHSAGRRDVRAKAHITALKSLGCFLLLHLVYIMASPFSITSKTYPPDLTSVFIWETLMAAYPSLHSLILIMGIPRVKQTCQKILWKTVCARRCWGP
Sequence of Taste receptor type 2 member 19 (Homo sapiens) (P59542 whole entry, the tested form may be a part): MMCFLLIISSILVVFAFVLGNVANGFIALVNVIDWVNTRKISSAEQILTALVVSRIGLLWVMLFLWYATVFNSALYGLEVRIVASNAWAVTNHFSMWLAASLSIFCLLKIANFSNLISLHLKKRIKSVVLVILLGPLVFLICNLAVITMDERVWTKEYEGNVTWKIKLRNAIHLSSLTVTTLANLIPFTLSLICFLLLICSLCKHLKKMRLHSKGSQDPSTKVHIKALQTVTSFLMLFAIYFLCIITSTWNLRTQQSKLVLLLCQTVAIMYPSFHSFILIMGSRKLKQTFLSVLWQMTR

Question: Which IC50 [1] does the source give for `C/C1=C\C[C@H](O)[C@@H](C)C[C@H]2OC(=O)[C@@H](C)C2CC1` (stereo partly drawn) here?
Answer: 44.5 µM

Question: What does the source list for `C/C1=C\C[C@H](O)/C(C)=C/[C@H]2OC(=O)[C@@H](C)C2CC1` (stereo partly drawn)?
Answer: Activity [2]: inactive; Activity [3]: inactive; Activity [4]: Active; Activity [5]: inactive; Activity [6]: inactive; Activity [7]: inactive; EC50 [8]: 31.5 µM
